Reference: the supplement of paper PMC10307832

Experiments:
Assay in all cases: relative viability (nuclei count vs DMSO), 5 days (fraction); higher = more cells survive
UMC-11 = tested on: UMC-11
In short: (§1)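 For relative viability, nuclei counts in treated wells were divided by those in vehicle wells. Lung cancer cell lines had been pin-tool dosed in 1536-well plates the day after seeding and cultured for 5 days, then fixed and stained in one step (final 0.05% Triton X-100, 1% formaldehyde, 1 ug/ml Hoechst) and imaged at 4×. Doses were one drug alone or a fixed anchor-drug dose plus five library-drug doses (not always all listed) in √10 steps, and values are duplicate-plate medians.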

NCI-H2023 = tested on: NCI-H2023
In short: as §1

NCI-H1915 = tested on: NCI-H1915
In short: as §1

HCC-44 = tested on: HCC-44
In short: as §1

LCLC-97TM1 = tested on: LCLC-97TM1
In short: as §1

SW 1573 = tested on: SW 1573
In short: as §1

NCI-H1734 = tested on: NCI-H1734
In short: as §1

NCI-H2347 = tested on: NCI-H2347
In short: as §1

EPLC-272H = tested on: EPLC-272H
In short: as §1

NCI-H1975 = tested on: NCI-H1975
In short: as §1

NCI-H2342 = tested on: NCI-H2342
In short: as §1

With Cc1cn(-c2cc(NC(=O)c3ccc(C)c(Nc4nccc(-c5cccnc5)n4)c3)cc(C(F)(F)F)c2)cn1 [Nilotinib] + CC(=O)c1c(C)c2cnc(Nc3ccc(N4CCNCC4)cn3)nc2n(C2CCCC2)c1=O [Palbociclib] (partner 0.5 µM) the relative viability (UMC-11; first compound 0.001 µM) was 0.299, the relative viability (UMC-11; first compound 0.003162 µM) was 0.296 and the relative viability (UMC-11; first compound 0.01 µM) was 0.299. The relative viability (UMC-11; first compound 0.03162 µM) was 0.374, the relative viability (UMC-11; first compound 0.1 µM) was 0.313 and the relative viability (NCI-H2023; first compound 0.001 µM) was 0.395. The relative viability (NCI-H2023; first compound 0.003162 µM) was 0.401, the relative viability (NCI-H2023; first compound 0.01 µM) was 0.457 and the relative viability (NCI-H2023; first compound 0.03162 µM) was 0.333. It also gave a relative viability (NCI-H2023; first compound 0.1 µM) of 0.419, a relative viability (NCI-H1915; first compound 0.001 µM) of 0.492 and a relative viability (NCI-H1915; first compound 0.003162 µM) of 0.535. The relative viability (NCI-H1915; first compound 0.01 µM) was 0.53, the relative viability (NCI-H1915; first compound 0.03162 µM) was 0.502 and the relative viability (NCI-H1915; first compound 0.1 µM) was 0.475. For the same molecule, the relative viability (HCC-44; first compound 0.001 µM) was 0.911, the relative viability (HCC-44; first compound 0.003162 µM) was 0.933 and the relative viability (HCC-44; first compound 0.01 µM) was 0.927. For the same molecule, the relative viability (HCC-44; first compound 0.1 µM) was 0.931, the relative viability (LCLC-97TM1; first compound 0.001 µM) was 0.222 and the relative viability (LCLC-97TM1; first compound 0.003162 µM) was 0.245. It also gave a relative viability (LCLC-97TM1; first compound 0.01 µM) of 0.225, a relative viability (LCLC-97TM1; first compound 0.1 µM) of 0.254 and a relative viability (SW 1573; first compound 0.001 µM) of 0.391. It also gave a relative viability (SW 1573; first compound 0.003162 µM) of 0.408, a relative viability (SW 1573; first compound 0.01 µM) of 0.363 and a relative viability (SW 1573; first compound 0.03162 µM) of 0.271. The relative viability (SW 1573; first compound 0.1 µM) was 0.32, the relative viability (NCI-H1734; first compound 0.001 µM) was 0.333 and the relative viability (NCI-H1734; first compound 0.003162 µM) was 0.36. It also gave a relative viability (NCI-H1734; first compound 0.01 µM) of 0.372, a relative viability (NCI-H1734; first compound 0.03162 µM) of 0.312 and a relative viability (NCI-H1734; first compound 0.1 µM) of 0.317. It also gave a relative viability (NCI-H2347; first compound 0.001 µM) of 0.452, a relative viability (NCI-H2347; first compound 0.003162 µM) of 0.419 and a relative viability (NCI-H2347; first compound 0.01 µM) of 0.474. The relative viability (NCI-H2347; first compound 0.03162 µM) was 0.43, the relative viability (NCI-H2347; first compound 0.1 µM) was 0.396 and the relative viability (EPLC-272H; first compound 0.001 µM) was 0.348. For the same molecule, the relative viability (EPLC-272H; first compound 0.003162 µM) was 0.345, the relative viability (EPLC-272H; first compound 0.03162 µM) was 0.291 and the relative viability (EPLC-272H; first compound 0.1 µM) was 0.39. The relative viability (NCI-H1975; first compound 0.001 µM) was 0.498, the relative viability (NCI-H1975; first compound 0.003162 µM) was 0.608 and the relative viability (NCI-H1975; first compound 0.01 µM) was 0.653. For the same molecule, the relative viability (NCI-H1975; first compound 0.03162 µM) was 0.345, the relative viability (NCI-H1975; first compound 0.1 µM) was 0.226 and the relative viability (NCI-H2342; first compound 0.001 µM) was 0.508. The relative viability (NCI-H2342; first compound 0.003162 µM) was 0.559, the relative viability (NCI-H2342; first compound 0.01 µM) was 0.49 and the relative viability (NCI-H2342; first compound 0.03162 µM) was 0.489. The relative viability (NCI-H2342; first compound 0.1 µM) was 0.478.
